According to patent US7247309B2, “Coccidiosis vaccines” (Intervet International B.V., priority 1999, dated 2007):

Tested on: Eimeria strains according to the invention
Assay: Tolerance/sensitivity of the strains to anticoccidial drugs (infection of chickens with the strains and administration of drug)
Type: in vivo
Method: all four strains are tolerant to two commonly used anticoccidial ionophores: monensin (110 ppm) and salinomycin (60 ppm). The concentrations tested are commonly used concentrations. Specific tolerance levels were determined by infection of chickens with the strains and administration of ionophores.
These four strains are tolerant for 110 ppm of monensin and for 60 ppm of salinomycin, sensitive for 1 ppm of diclazuril (see FIG. 1) and the proliferative capacity of the four strains is decreased to 76000 (see Table 1b).

SMILES: CC[C@@]1([C@@H]2O[C@@H]([C@H]3O[C@@](O)(CO)[C@H](C)C[C@@H]3C)C[C@@H]2C)CC[C@H]([C@]2(C)CC[C@]3(C[C@H](O)[C@@H](C)[C@@H]([C@@H](C)[C@@H](OC)[C@H](C)C(=O)O)O3)O2)O1 [monensin]
- tolerance of the strains to monensin (monensin 110 ppm, chickens infected with the strains): tolerant

SMILES: N#CC(c1ccc(Cl)cc1)c1c(Cl)cc(-n2ncc(=O)[nH]c2=O)cc1Cl (stereo not drawn) [diclazuril]
- sensitivity of the strains to diclazuril (diclazuril 1 ppm): fully sensitive

SMILES: CC[C@@H](C(=O)[C@@H](C)[C@@H](O)[C@H](C)[C@@H]1O[C@@H]([C@@H](CC)C(=O)O)CC[C@@H]1C)[C@H]1O[C@]2(C=C[C@@H](O)[C@]3(CC[C@@](C)([C@H]4CC[C@](O)(CC)[C@H](C)O4)O3)O2)[C@H](C)C[C@@H]1C [salinomycin]
- tolerance of the strains to salinomycin (salinomycin 60 ppm, chickens infected with the strains): tolerant
